Experimental data: patent US11155586B2, “Cystine knot scaffold platform” (Genentech, Inc., priority 2015, dated 2021)
Positions of bridges follow the written chain, without caps; N, C: chain ends. Residues, ends and D or L forms follow the SMILES beside them.

Columns and labels:
hVEGF-A = target: T1, hVEGF-A (Homo sapiens, UniProt P15692); test: KDR-CHO VEGF assay to determine cellular IC50 (VEGF mediated Tyr phosphorylation of KDR); assay type: cell-based; conditions: Table 36, from cellular IC50
T1 sequence (P15692 207-395): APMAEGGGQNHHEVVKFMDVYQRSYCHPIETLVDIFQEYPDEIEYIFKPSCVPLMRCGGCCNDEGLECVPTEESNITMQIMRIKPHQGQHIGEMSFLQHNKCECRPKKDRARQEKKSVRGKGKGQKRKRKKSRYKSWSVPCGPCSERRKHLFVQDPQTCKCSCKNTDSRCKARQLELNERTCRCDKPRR
Protocol: KDR-CHO cells (CHO cells stably transfected with gD tagged-KDR) were grown in cell growth medium (DMEM/Ham's F-12, 10% diafiltered FBS (GIBCO catalog no. 26400), 25 mM HEPES, 2 mM L-GLUTAMAX™). For VEGF stimulation assay, 5×10^4 cells/well were plated in 100 μl of cell plating medium (DMEM/Ham's F-12, 0.2% BSA, 0.25% diafiltered FBS, 25 mM HEPES, 2 mM L-GLUTAMAX™) in 96-well tissue culture plate and incubated at 37° C. overnight. The medium was replaced with 100 I1 of serum-free cell stimulation medium (DMEM/Ham's F-12, 0.5% BSA, 25 mM HEPES) and cells were incubated at 37° C. for 2 hr. One hour before stimulation, the medium was replaced with 50 I1 of serum-free cell stimulation medium. Concurrently, VEGF (50 ng/ml for hVEGF, 100 ng/ml for mVEGF and rVEGF) was pre-incubated with titrated amount of CKP or anti-VEGF in 50 μl of serum-free cell stimulation medium at 37° C. for 1 hour and added to the cells. The cells were stimulated for 15 min at 37 C and the medium is removed. The cells were lysed with 130 I1 of ice-cold cell lysis buffer (150 mM NaCl, 50 mM HEPES, 0.5% Triton-X 100, HALT protease and phosphatase inhibitor cocktail (ThermoFisher Scientific, Inc. catalog no. 78444), 5 mM EDTA). VEGF mediated Tyr phosphorylation of KDR was determined by ELISA-based assay. Briefly, MAXISORP™ 96 well plates (ThermoFisher Scientific, Inc. catalog no. 439454) were coated with 100 I1 of anti-gD antibody diluted in PBS (1 μg/ml) at 4° C. overnight and washed three times with washing buffer (PBS, 0.05% TWEEN®20, pH 7.4). The plates were blocked with 300 I1 of blocking buffer (PBS, 0.5% BSA) at room temperature for 1 hour followed by washing three times with washing buffer. The above KDR-CHO cell lysate (100 μl) was added to each well and incubated at room temperature for 2 hours. The plates were washed four times with washing buffer followed by incubation with 100 I1 of 0.5 μg/ml biotin-conjugated anti-phosphotyrosine (clone 4G10, Millipore catalog no. 16-103) in blocking buffer at room temperature for 2 hours. After washing four times, the plates were incubated with 100 I1 of HRP-conjugated streptavidin in blocking buffer at room temperature for 30 min. After washing four times, the plates were developed with 100 I1 of TMB substrate (BD Biosciences) at room temperature for 20-30 min and stopped by addition of 50 μl of H2SO4 solution. The optical density of each well was determined using a microplate reader set to 450 nm.

hVEGF(8-109) = target: T2, hVEGF(8-109) (Homo sapiens, UniProt P15692); test: Spot phage ELISA; assay type: binding
T2 construct: hVEGF(8-109) or BSA were coated on 384-well MAXISORP™ immunoplates
T2 sequence (P15692 214-315): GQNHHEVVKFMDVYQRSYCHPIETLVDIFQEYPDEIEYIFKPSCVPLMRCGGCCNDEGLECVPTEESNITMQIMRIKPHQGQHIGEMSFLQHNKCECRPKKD
Summary of the method: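 After four selection rounds, phage supernatants from single clones (1:3 in PBT) were added to wells coated with hVEGF(8-109) or BSA; binding detected with anti-M13-HRP and TMB. Positive clones had target signal more than 3 times BSA background.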

hVEGF-A (8-109) = target: T3, hVEGF-A (8-109) (Homo sapiens, UniProt P15692); test: SPR binding assay (BIACORE 3000, 37° C.)
T3 sequence (P15692 34-135 isoform P15692-4): T2 sequence (P15692 214-315)
Protocol: Depending on the format of the assay either a streptavidin sensor (SA) or a dextran-coated (CM5) sensor was utilized as described below.
For use with the SA sensor, VEGF-A was first biotinylated (no more than 2 biotin/VEGF-A) by incubating the protein with EZ-link NHS-PEG4-Biotin (Pierce) in a 1:1.5 molar ratio respectively, in PBS for 2 hours on ice. Reaction was then quenched by addition of 10 molar excess of Glycine pH 8.0 and the sample was buffer exchanged into PBS using an Amicon 0.5 mL 3000 MWCO ultra-centrifugal filters (EMD Millipore). The biotinylation state of the protein was verified by LC-MS analysis. Biotinylated VEGF-A was then captured on the surface until a resonance unit (RU) signal of about ˜400. For immobilization of VEGF-A on CM5 sensor, the surface was first activated with a mixture of N-ethyl-N′-(3-dimethylaminopropyl)carbodiimide hydrochloride and N-hydroxysuccinimide (EDC/NHS) according to the supplier instructions. VEGF-A was then diluted into coupling buffer (0.1 M Acetate Buffer, pH 5.0) and injected until the signal reached about ˜400 RU followed by a wash with 1 M ethanolamine pH 8.0 to quench remaining activated sites.
Following the capture step, a series of the peptide concentrations were prepared in HBS-EP buffer with matching DMSO concentrations to 0.1% and injected at a flow rate of […]. The resulting sensorgrams were then analyzed using a 1:1 binding model to obtain kinetic data and affinities using Scrubber 2.0 (BioLogic Software).

Structure (SMILES): CC[C@H](C)[C@@H]1NC(=O)[C@H](Cc2ccccc2)NC(=O)[C@@H]2CSSC[C@H](NC(=O)CNC(=O)[C@H](Cc3c[nH]c4ccccc34)NC(=O)[C@H](Cc3ccccc3)NC(=O)[C@@H]3CCCN3C(=O)[C@H](CC(C)C)NC(=O)[C@H](CCSC)NC(=O)[C@H]([C@@H](C)CC)NC(=O)[C@H](CC(N)=O)NC(=O)[C@@H](NC(=O)CN)CSSC[C@@H](C(=O)N[C@H](C(=O)N[C@H]3CSSC[C@@H](C(=O)NCC(=O)O)NC(=O)[C@H](CO)NC(=O)[C@H](CCC(N)=O)NC(=O)[C@H](Cc4ccc(O)cc4)NC(=O)[C@H](Cc4ccc(O)cc4)NC(=O)[C@H](CCC(N)=O)NC3=O)[C@@H](C)CC)NC(=O)[C@H](CC(N)=O)NC1=O)C(=O)NCC(=O)N[C@@H](CCCNC(=N)N)C(=O)N[C@@H](CC(=O)O)C(=O)N[C@@H](Cc1ccccc1)C(=O)N[C@@H](CCC(=O)O)C(=O)N2 [9.54.90.44] (H-GCNIMLPFWGCGRDFECFINCICQYYQSCG-OH; disulfide 2-21, 11-17, 23-29; N-terminus and C-terminus assumed)
- FOLD IMPROVEMENT RELATIVE TO VARIANT 9.54.90 (hVEGF-A): 1.16

Structure (SMILES): CC[C@H](C)[C@H](NC(=O)[C@@H]1CSSC[C@H](NC(=O)CN)C(=O)N[C@@H](CC(N)=O)C(=O)N[C@@H]([C@@H](C)CC)C(=O)N[C@@H](CCSC)C(=O)N[C@@H](CC(C)C)C(=O)N2CCC[C@H]2C(=O)N[C@@H](Cc2ccccc2)C(=O)N[C@@H](Cc2c[nH]c3ccccc23)C(=O)NCC(=O)N[C@H]2CSSC[C@H](NC(=O)[C@H](CCC(=O)O)NC(=O)[C@H](Cc3ccccc3)NC(=O)[C@H](CC(=O)O)NC(=O)[C@H](CCCNC(=N)N)NC(=O)CNC2=O)C(=O)N[C@@H](CCSC)C(=O)N[C@@H](CO)C(=O)N[C@@H](CC(=O)O)C(=O)N1)C(=O)N[C@H]1CSSC[C@@H](C(=O)NCC(=O)O)NC(=O)[C@H](CO)NC(=O)[C@H](CCC(N)=O)NC(=O)[C@H](Cc2ccc(O)cc2)NC(=O)[C@H](Cc2ccc(O)cc2)NC(=O)[C@H](CCC(N)=O)NC1=O [9.54.90.12] (H-GCNIMLPFWGCGRDFECMSDCICQYYQSCG-OH; disulfide 2-21, 11-17, 23-29; N-terminus and C-terminus assumed)
- FOLD IMPROVEMENT RELATIVE TO VARIANT 9.54.90 (hVEGF-A): 1.125

Structure (SMILES): CC[C@H](C)[C@H](NC(=O)[C@@H]1CSSC[C@H](NC(=O)CN)C(=O)N[C@@H](CC(N)=O)C(=O)N[C@@H]([C@@H](C)CC)C(=O)N[C@@H](CCSC)C(=O)N[C@@H](CC(C)C)C(=O)N2CCC[C@H]2C(=O)N[C@@H](Cc2ccccc2)C(=O)N[C@@H](Cc2c[nH]c3ccccc23)C(=O)NCC(=O)N[C@H]2CSSC[C@H](NC(=O)[C@H](CCC(=O)O)NC(=O)[C@H](Cc3ccccc3)NC(=O)[C@H](CC(=O)O)NC(=O)[C@H](CCCNC(=N)N)NC(=O)CNC2=O)C(=O)N[C@@H](CCSC)C(=O)N[C@@H](CCC(N)=O)C(=O)N[C@@H]([C@@H](C)O)C(=O)N1)C(=O)N[C@H]1CSSC[C@@H](C(=O)NCC(=O)O)NC(=O)[C@H](CO)NC(=O)[C@H](CCC(N)=O)NC(=O)[C@H](Cc2ccc(O)cc2)NC(=O)[C@H](Cc2ccc(O)cc2)NC(=O)[C@H](CCC(N)=O)NC1=O [9.54.90.25] (H-GCNIMLPFWGCGRDFECMQTCICQYYQSCG-OH; disulfide 2-21, 11-17, 23-29; N-terminus and C-terminus assumed)
- FOLD IMPROVEMENT RELATIVE TO VARIANT 9.54.90 (hVEGF-A): 1.07

Structure (SMILES): CSCC[C@@H]1NC(=O)[C@H](CCC(=O)O)NC(=O)[C@@H]2CSSC[C@H](NC(=O)[C@H](CC(=O)O)NC(=O)[C@H](Cc3ccccc3)NC(=O)[C@H](CC(=O)O)NC1=O)C(=O)N[C@@H](CC(C)C)C(=O)N[C@@H](C)C(=O)NCC(=O)N[C@H](C(=O)N[C@H](C(=O)N[C@H]1CSSC[C@@H](C(=O)NCC(=O)O)NC(=O)[C@H](CO)NC(=O)[C@H](CC(N)=O)NC(=O)[C@H](Cc3ccc(O)cc3)NC(=O)[C@H](Cc3c[nH]c4ccccc34)NC(=O)[C@H](Cc3c[nH]cn3)NC1=O)C(C)C)CSSC[C@H](NC(=O)CN)C(=O)N[C@@H](CC(=O)O)C(=O)N[C@@H](C(C)C)C(=O)N[C@@H](CCSC)C(=O)N[C@@H](CCC(N)=O)C(=O)N1CCC[C@H]1C(=O)N[C@@H](Cc1ccc(O)cc1)C(=O)N[C@@H](Cc1c[nH]c3ccccc13)C(=O)NCC(=O)N2 [VEGF_CKP9.63.44] (H-GCDVMQPYWGCEMDFDCLAGCVCHWYNSCG-OH; disulfide 2-21, 11-17, 23-29 (inferred); N-terminus and C-terminus assumed)
- S/N (signal to noise ratio as compared to BSA control) (hVEGF(8-109); Table 27): 19.5
- ELISA (hVEGF(8-109); loop 2 variants based on VEGF_CKP9.63 framework, Table 27): 1.7
- kd (hVEGF-A (8-109); hVEGF-A (8-109), Table 29): 0.11

Structure (SMILES): CSCC[C@@H]1NC(=O)[C@H](CC(C)C)NC(=O)[C@H](CCC(N)=O)NC(=O)[C@@H](NC(=O)CN)CSSC[C@@H](C(=O)N[C@H](C(=O)N[C@H]2CSSC[C@@H](C(=O)NCC(=O)O)NC(=O)[C@H](CO)NC(=O)[C@H](CCC(N)=O)NC(=O)[C@H](Cc3ccc(O)cc3)NC(=O)[C@H](Cc3c[nH]c4ccccc34)NC(=O)[C@H](Cc3c[nH]cn3)NC2=O)C(C)C)NC(=O)CNC(=O)[C@H](C)NC(=O)[C@H](CC(C)C)NC(=O)[C@@H]2CSSC[C@H](NC(=O)CNC(=O)[C@H](Cc3c[nH]c4ccccc34)NC(=O)[C@H](Cc3ccccc3)NC(=O)[C@@H]3CCCN3C(=O)[C@H](CCC(N)=O)NC1=O)C(=O)N[C@@H](CCCCN)C(=O)N[C@@H](CCC(N)=O)C(=O)N[C@@H](CC(=O)O)C(=O)N[C@@H](CO)C(=O)N[C@@H](CC(=O)O)C(=O)N2 [VEGF_CKP9] (H-GCQLMQPFWGCKQDSDCLAGCVCHWYQSCG-OH; disulfide 2-21, 11-17, 23-29 (inferred); N-terminus and C-terminus assumed)
- S/N (signal to noise ratio as compared to BSA control) (hVEGF(8-109); Table 19): 36.0
- S/N (signal to noise ratio as compared to BSA control) (hVEGF(8-109); Table 22): 7.4
- S/N (signal to noise ratio as compared to BSA control) (hVEGF(8-109); Table 23): 11.6
- S/N (signal to noise ratio as compared to BSA control) (hVEGF(8-109); Table 24): 7.4
- ELISA (hVEGF(8-109); VEGF_CKP9 Loop1/Loop5 affinity-matured variants, Table 24): 0.4
- ELISA (hVEGF(8-109); VEGF_CKP9 Loop1 affinity-matured variants, Table 22): 0.4
- ELISA (hVEGF(8-109); VEGF_CKP9 Loop5 affinity-matured variants, Table 23): 0.9
- ELISA (hVEGF(8-109); spot phage ELISA signal, EETI-II-based binders against hVEGF-A, Table 19): 3.3
- kd (hVEGF-A (8-109); Table 37, surface plasmon resonance, VEGF-A): 40
